From ChEMBL document CHEMBL4007384, “Synthesis and optimization of furano[3,2-d]pyrimidines as selective spleen tyrosine kinase (Syk) inhibitors” (Bioorg Med Chem Lett, 2016)
Converted amounts (≈) assume the structure as drawn.

Tests used:
[1] = Unbound clearance in human microsomes; type: ADME, Microsome
[2] = Unbound clearance in rat microsomes; type: ADME, Microsome
[3] = biological target: T1, CYP3A4 (Homo sapiens, UniProt P08684); assay: Inhibition of CYP3A4 in human liver microsomes assessed as residual activity at 50 uM measured after 30 mins relative to control; type: ADME; conditions: read-out: Activity
T1 sequence (P08684 whole entry): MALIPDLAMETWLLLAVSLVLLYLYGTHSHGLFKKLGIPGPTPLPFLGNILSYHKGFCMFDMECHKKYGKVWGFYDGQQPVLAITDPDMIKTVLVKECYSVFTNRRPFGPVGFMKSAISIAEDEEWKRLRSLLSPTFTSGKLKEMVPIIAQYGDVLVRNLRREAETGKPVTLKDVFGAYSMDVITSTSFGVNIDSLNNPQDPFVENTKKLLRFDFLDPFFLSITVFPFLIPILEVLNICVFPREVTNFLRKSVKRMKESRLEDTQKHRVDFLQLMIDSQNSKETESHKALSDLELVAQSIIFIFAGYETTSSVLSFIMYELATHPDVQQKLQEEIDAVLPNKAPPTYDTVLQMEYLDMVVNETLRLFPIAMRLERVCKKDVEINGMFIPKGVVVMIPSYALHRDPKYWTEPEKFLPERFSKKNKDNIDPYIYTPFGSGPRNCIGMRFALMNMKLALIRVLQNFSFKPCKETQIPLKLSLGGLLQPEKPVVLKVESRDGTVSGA

[4] = biological target: T1, CYP3A4; assay: Inhibition of CYP3A4 in human liver microsomes assessed as residual activity at 10 uM measured after 30 mins relative to control; type: ADME; conditions: read-out: Activity
[5] = Solubility in pH 5 FeSSIF at 0.2 mg sonicated for 10 mins followed by incubation for 2 days by HPLC analysis; type: physicochemical
[6] = biological target: T1, CYP3A4; assay: Inhibition of CYP3A4 in human liver microsomes assessed as residual activity at 50 uM measured immediately relative to control; type: ADME; conditions: read-out: Activity
[7] = biological target: T1, CYP3A4; assay: Inhibition of CYP3A4 in human liver microsomes assessed as residual activity at 10 uM measured immediately relative to control; type: ADME; conditions: read-out: Activity
[8] = biological target: Cytochrome P450 3A4 (Homo sapiens, UniProt P08684); assay: Time-dependent inhibition of CYP3A4 in human liver microsomes at 10 to 50 uM; type: ADME
Chain of Cytochrome P450 3A4 (P08684 whole entry): as above

[9] = test system: Rattus norvegicus; assay: Antiarthritic activity in rat model of collagen-induced arthritis assessed as inhibition of paw swelling at 3 mg/kg, bid for 8 days relative to control; type: functional; conditions: 192 h

| SMILES | CL free [1] [mL/min/kg] | CL free [2] [mL/min/kg] | further results |
| --- | --- | --- | --- |
| CC(C)CNc1nc(Nc2ccc3c(c2)NC(=O)COC3(C)C)nc2ccoc12 | 507 | 1080 | – |
| O=C1CCc2ccc(Nc3nc(NCC(F)(F)F)c4occc4n3)cc2N1 | – | 365 | – |
| CC1(C)OCC(=O)Nc2cc(Nc3nc(NC4CC4)c4occc4n3)ccc21 | 120 | 200 | activity at 0.5 h, 50 µM [3]: 14%; activity at 0.5 h, 10 µM [4]: 56%; solubility at 48 h [5]: 158 µM (≈ 59.9 µg/mL); activity at 0 min, 50 µM [6]: 80%; activity at 0 min, 10 µM [7]: 97%; TDI [8]: Active |
| CCNc1nc(Nc2ccc3c(c2)NC(=O)COC3(C)C)nc2ccoc12 | 91.7 | 318 | solubility at 48 h [5]: > 67 µM |
| CC1(C)CCC(=O)Nc2cc(Nc3nc(NCC(F)(F)F)c4occc4n3)ccc21 | – | 880 | – |
| CC1(C)CCC(=O)Nc2cc(Nc3nc(NC4CC4)c4occc4n3)ccc21 | 317 | 397 | – |
| C[C@]12C=CC(=O)C=C1CC[C@@H]1[C@@H]2[C@@H](O)C[C@@]2(C)[C@H]1CC[C@]2(O)C(=O)CO [PREDNISOLONE] | – | – | inhibition in vivo at 3 mg/kg [9]: 86% |
